Measured values as given in patent US10344019B2 (priority 2010, dated 2019).
Where two headings read alike, the source gives them in different places.

How the values were obtained:
Format in all cases: cell-based
[1] = tested on: HCV 1a RLuc cells (dicistronic genotype 1a H77 replicon, RLuc reporter); experiment: microbe, parasite or virus in culture; conditions: Hepatitis C virus, read-out: 1a
Procedure, shortened: (§1)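 Replicons used: genotype 1b Con1, 1a H77, 2a JFH-1, and a 2a JFH-1 chimera with J6-strain NS5A (M31 present), all dicistronic.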

[2] = tested on: HCV 3a RLuc cells (NS5A chimeric genotype 1b Con1 replicon with consensus genotype 3a NS5A gene); experiment: microbe, parasite or virus in culture; conditions: Hepatitis C virus
Procedure, shortened: (§2)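 Replicon cells stably carrying the listed RLuc-encoding dicistronic replicons were seeded and treated with DMSO serial dilutions of compound (10 mM stocks) diluted into culture medium. After 72 h, cells were lysed and Renilla luciferase activity measured. EC50 was derived by non-linear regression.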

[3] = tested on: HCV 4a Rluc cells (NS5A chimeric genotype 1b Con1 replicon with genotype 4a NS5A gene); experiment: microbe, parasite or virus in culture; conditions: Hepatitis C virus, read-out: 4a
Procedure, shortened: as §2

[4] = tested on: HCV 1b RLuc cells (dicistronic genotype 1b Con1 replicon, RLuc reporter); experiment: microbe, parasite or virus in culture; conditions: Hepatitis C virus, read-out: 1b (nM)
Procedure, shortened: as §1

[5] = tested on: HCV 2b Rluc cells (NS5A chimeric genotype 2a JFH-1 replicon with genotype 2b MD2b-1 NS5A gene, M31 present); experiment: microbe, parasite or virus in culture; conditions: Hepatitis C virus, read-out: 2b
Procedure, shortened: as §2

[6] = tested on: HCV 2a JFH-1 Rluc cells (dicistronic genotype 2a JFH-1 replicon, RLuc reporter); experiment: microbe, parasite or virus in culture; conditions: Hepatitis C virus, read-out: 2a JFH
Procedure, shortened: as §1

[7] = tested on: Q30R in genotype 1a NS5A, 1a Rluc replicon transfected into Huh-7 cured-51 cells; experiment: HCV replicon assay, resistance mutant 1a Q30R; conditions: Hepatitis C virus, Huh-7, read-out: 1a Q30R
Procedure, shortened: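 Q30R introduced into genotype 1a H77 RLuc replicon by site-directed mutagenesis; replicon RNA transfected into Huh-7 cured-51 cells.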

[8] = tested on: HCV 2a Rluc cells (NS5A chimeric genotype 2a JFH-1 replicon with genotype 2a J6 strain NS5A gene, M31 present); experiment: HCV replicon reporter assay, genotype 2a J6 (M31 present); conditions: Hepatitis C virus, read-out: 2a J6
Procedure, shortened: as §1

[9] = read-out: 3a, genotype 3a replicon
[10] = read-out: 3a, genotype 3a NS5A chimeric replicon
[11] = genotype 2a JFH-1 RLuc replicon

## COC(=O)N[C@H](C(=O)N1CCC[C@H]1c1ncc(-c2ccc3c(c2)COc2cc4c(ccc5nc([C@@H]6CCCN6C(=O)[C@H](NC(=O)OC)c6ccccc6)[nH]c54)cc2-3)[nH]1)C(C)C [Example 423]
[1]; genotype 1a replicon
  EC50: 0.001 to 0.999 nM
[2]; [9]
  EC50: 0.001 to 0.99 nM
[3]
  EC50: 0.001 to 0.99 nM
[4]
  EC50: 0.02 nM
[5]
  EC50: 0.001 to 0.999 nM
[6]; genotype 2a JFH-1 replicon
  EC50: 0.001 to 0.999 nM
[7]
  EC50: 0.001 to 0.999 nM
[8]
  EC50: 0.001 to 0.999 nM

## COC[C@H]1C[C@@H](c2ncc(-c3cc4c5c(c3)OCc3cc(-c6cnc([C@@H]7CC[C@H](C)N7C(=O)[C@@H](NC(=O)OC)C(C)C)[nH]6)cc(c3-5)OC4)[nH]2)N(C(=O)[C@H](NC(=O)OC)c2ccccc2)C1 [Example 596]
[1]; genotype 1a H77 RLuc replicon
  EC50: 0.001 to 0.999 nM
[2]; [10]
  EC50: 0.001 to 0.99 nM
[3]
  EC50: 0.001 to 0.99 nM
[4]
  EC50: 0.013 nM
[5]
  EC50: 0.001 to 0.999 nM
[6]; [11]
  EC50: 0.001 to 0.999 nM
[7]
  EC50: 0.001 to 0.999 nM
[8]
  EC50: 0.001 to 0.999 nM

## COC(=O)N[C@H](C(=O)N1CCC[C@H]1c1nc2ccc3cc(-c4ccc5c(ccc6nc([C@@H]7[C@H]8CC[C@H](C8)N7C(=O)[C@H](NC(=O)OC)c7ccccc7)[nH]c65)c4)ccc3c2[nH]1)C(C)C [Example 325]
[1]; genotype 1a replicon
  EC50: 0.001 to 0.999 nM
[2]; [9]
  EC50: 0.001 to 0.99 nM
[3]
  EC50: 0.001 to 0.99 nM
[4]
  EC50: 0.018 nM
[5]
  EC50: 1 to 44 nM
[6]; genotype 2a JFH-1 replicon
  EC50: 0.001 to 0.999 nM
[7]
  EC50: 1 to 44 nM
[8]
  EC50: 0.001 to 0.999 nM

## COC[C@H]1C[C@@H](c2ncc(-c3ccc4c(c3)COc3cc5c(ccc6nc([C@@H]7C[C@H](COC)CN7C(=O)[C@@H](NC(=O)OC)C(C)C)[nH]c65)cc3-4)[nH]2)N(C(=O)[C@@H](NC(=O)OC)C(C)C)C1 [Example 579]
[1]; genotype 1a H77 RLuc replicon
  EC50: 0.001 to 0.999 nM
[2]; [10]
  EC50: 0.001 to 0.99 nM
[3]
  EC50: 0.001 to 0.99 nM
[4]
  EC50: 0.034 nM
[5]
  EC50: 0.001 to 0.999 nM
[6]; [11]
  EC50: 0.001 to 0.999 nM
[7]
  EC50: 0.001 to 0.999 nM
[8]
  EC50: 0.001 to 0.999 nM

## COC[C@H]1C[C@@H](c2ncc(-c3ccc(-c4ccc(-c5cnc([C@@H]6CCCN6C(=O)[C@@H](NC(=O)OC)C(C)C)[nH]5)cc4)cc3)[nH]2)N(C(=O)[C@H](NC(=O)C2CC2)c2ccccc2)C1 [Example 506]
[1]; genotype 1a H77 RLuc replicon
  EC50: 0.001 to 0.999 nM
[2]; [10]
  EC50: 0.001 to 0.99 nM
[3]
  EC50: 0.001 to 0.99 nM
[4]
  EC50: 0.036 nM
[5]
  EC50: 0.001 to 0.999 nM
[6]; [11]
  EC50: 0.001 to 0.999 nM
[7]
  EC50: 0.001 to 0.999 nM
[8]
  EC50: 0.001 to 0.999 nM

## COC[C@@H]1C[C@@H](c2nc3ccc4cc(-c5ccc6c(ccc7nc([C@@H]8CCCN8C(=O)[C@@H](NC(=O)OC)C(C)C)[nH]c76)c5)ccc4c3[nH]2)N(C(=O)[C@@H](NC(=O)OC)C(C)C)C1 [Example 397]
[1]; genotype 1a replicon
  EC50: 0.001 to 0.999 nM
[2]; [9]
  EC50: 0.001 to 0.99 nM
[3]
  EC50: 0.001 to 0.99 nM
[4]
  EC50: 0.017 nM
[5]
  EC50: 0.001 to 0.999 nM
[6]; genotype 2a JFH-1 replicon
  EC50: 0.001 to 0.999 nM
[7]
  EC50: 0.001 to 0.999 nM
[8]
  EC50: 0.001 to 0.999 nM

## COCC(=O)N[C@@H](C(=O)N1C[C@@H](COC)C[C@H]1c1nc2ccc3cc(-c4ccc5c(ccc6nc([C@@H]7C[C@H](C)CN7C(=O)[C@@H](NC(=O)OC)C(C)C)[nH]c65)c4)ccc3c2[nH]1)c1ccccc1 [Example 550]
[1]; genotype 1a H77 RLuc replicon
  EC50: 0.001 to 0.999 nM
[2]; [10]
  EC50: 0.001 to 0.99 nM
[3]
  EC50: 0.001 to 0.99 nM
[4]
  EC50: 0.013 nM
[5]
  EC50: 0.001 to 0.999 nM
[6]; [11]
  EC50: 0.001 to 0.999 nM
[7]
  EC50: 0.001 to 0.999 nM
[8]
  EC50: 0.001 to 0.999 nM

## COC(=O)N[C@H](C(=O)N1C[C@@H](C)C[C@H]1c1nc2ccc3cc4c(cc3c2[nH]1)OCc1cc(-c2cnc([C@@H]3CCCN3C(=O)[C@H](NC(=O)OC)c3ccccc3)[nH]2)ccc1-4)C(C)C [Example 565]
[1]; genotype 1a H77 RLuc replicon
  EC50: 0.001 to 0.999 nM
[2]; [10]
  EC50: 0.001 to 0.99 nM
[3]
  EC50: 0.001 to 0.99 nM
[4]
  EC50: 0.017 nM
[5]
  EC50: 0.001 to 0.999 nM
[6]; [11]
  EC50: 0.001 to 0.999 nM
[7]
  EC50: 0.001 to 0.999 nM
[8]
  EC50: 0.001 to 0.999 nM

## COC[C@H]1C[C@@H](c2nc3ccc4cc(-c5ccc(-c6[nH]c([C@@H]7CCCN7C(=O)[C@H](NC(=O)C7CC7)c7ccccc7)nc6C)cc5)ccc4c3[nH]2)N(C(=O)[C@@H](NC(=O)OC)C(C)C)C1 [Example 525]
[1]; genotype 1a H77 RLuc replicon
  EC50: 0.001 to 0.999 nM
[2]; [10]
  EC50: 0.001 to 0.99 nM
[3]
  EC50: 0.001 to 0.99 nM
[4]
  EC50: 0.038 nM
[5]
  EC50: 0.001 to 0.999 nM
[6]; [11]
  EC50: 0.001 to 0.999 nM
[7]
  EC50: 0.001 to 0.999 nM
[8]
  EC50: 0.001 to 0.999 nM
